In US8883963B2 (Cadila Healthcare Limited, priority 2007, dated 2014):
Starred links: 1 amine or outer side, 2 acyl side, 3 side chain; linkers in the order of their positions; H or OH if unused. Non-standard residues stand in square brackets, D forms with d. Residues, ends and D or L forms follow the SMILES beside them. ξ: configuration not given here. ξBip(2'-Et-4'-OMe) = CCc1cc(OC)ccc1-c1ccc(CC(N)C(=O)O)cc1; X1 = O=C(C(CCCc1ccc(C(F)(F)F)cc1F)N[*:1])[*:2]; Aib = CC(C)(N)C(=O)O

How the values were obtained:
[1] = Stability in simulated intestinal fluid; format: in vitro ADME; conditions: 2 μM peptidomimetic, simulated intestinal fluid pH 7.5, 37° C.; for half-life at 2 μM: read-out: half-life (t1/2) when incubated with simulated intestinal fluid
Procedure: (§1) Reactions were terminated by the addition of TFA/H2O (15 mL, 10% (v/v)). […] The column was equilibrated with TFA/H20, at a flow rate of 1 mL/min.

[2] = Stability in simulated gastric fluid; format: in vitro ADME; conditions: 2 μM peptidomimetic, simulated gastric fluid pH 1.5, 37° C.; for half-life at 2 μM: read-out: half-life (t1/2) when incubated with simulated gastric fluid
Procedure: as §1

human glucagon receptor = molecular target: T1, human glucagon receptor (Homo sapiens, UniProt P47871); test: In vitro human glucagon antagonist activity (inhibition of cAMP production) in CHO/human glucagon R cells; format: cell-based; conditions: with saturated concentration of glucagon peptide
T1 construct: The full-length cDNA was cloned in pcDNA3.1 (Invitrogen); expressed in transfected cells
T1 sequence (P47871 26-477): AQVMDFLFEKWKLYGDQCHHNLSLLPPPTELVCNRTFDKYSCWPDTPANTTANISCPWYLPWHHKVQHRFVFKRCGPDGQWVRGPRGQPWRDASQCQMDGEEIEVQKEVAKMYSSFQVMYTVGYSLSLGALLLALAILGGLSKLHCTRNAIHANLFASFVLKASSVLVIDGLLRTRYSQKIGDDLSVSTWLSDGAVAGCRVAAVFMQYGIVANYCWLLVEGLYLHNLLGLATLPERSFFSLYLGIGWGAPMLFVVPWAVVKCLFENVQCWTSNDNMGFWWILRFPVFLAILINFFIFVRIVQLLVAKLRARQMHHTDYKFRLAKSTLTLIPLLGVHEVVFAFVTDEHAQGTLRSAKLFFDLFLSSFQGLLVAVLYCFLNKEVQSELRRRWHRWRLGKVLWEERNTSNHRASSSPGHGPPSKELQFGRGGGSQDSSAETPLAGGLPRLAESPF

DPP IV = DPP IV (Homo sapiens, UniProt P27487); test: Stability against DPP IV enzyme; format: in vitro ADME; conditions: 37° C.; for % degradation of peptidomimetics in 24 h when incubated with DPP-IV enzyme: 2 μM peptidomimetic; for half-life at 2 μM: DPP IV enzyme, pH 7.8, 2 μM peptidomimetic, read-out: half-life (t1/2) when incubated with DPP-IV enzyme
Chain of DPP IV (P27487 whole entry, species assumed): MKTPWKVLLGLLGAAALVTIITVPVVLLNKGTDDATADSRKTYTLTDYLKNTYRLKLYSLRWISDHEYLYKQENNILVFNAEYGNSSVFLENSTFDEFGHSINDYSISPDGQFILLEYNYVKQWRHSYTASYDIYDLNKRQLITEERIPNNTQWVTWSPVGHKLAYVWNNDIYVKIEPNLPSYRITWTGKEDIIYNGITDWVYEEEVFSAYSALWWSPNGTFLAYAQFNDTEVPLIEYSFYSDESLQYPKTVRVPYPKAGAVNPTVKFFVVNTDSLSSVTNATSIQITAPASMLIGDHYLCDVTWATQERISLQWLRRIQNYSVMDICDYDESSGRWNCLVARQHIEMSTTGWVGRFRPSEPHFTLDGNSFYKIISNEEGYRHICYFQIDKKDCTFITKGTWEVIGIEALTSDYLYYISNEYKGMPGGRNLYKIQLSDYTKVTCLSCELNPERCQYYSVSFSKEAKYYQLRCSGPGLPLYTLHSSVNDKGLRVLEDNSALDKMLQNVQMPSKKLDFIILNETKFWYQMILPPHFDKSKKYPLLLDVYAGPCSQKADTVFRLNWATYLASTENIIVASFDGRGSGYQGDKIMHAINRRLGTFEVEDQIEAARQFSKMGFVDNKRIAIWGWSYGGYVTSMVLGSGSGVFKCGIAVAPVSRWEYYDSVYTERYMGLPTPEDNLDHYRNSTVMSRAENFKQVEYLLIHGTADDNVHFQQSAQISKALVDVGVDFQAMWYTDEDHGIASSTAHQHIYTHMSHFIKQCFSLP
Procedure: as §1

[3] = Stability in human plasma; format: in vitro ADME; conditions: 2 μM peptidomimetic, pooled human plasma, 37° C.; for half-life at 2 μM: pH 7.8, read-out: half-life (t1/2) when incubated with human plasma
Procedure: as §1

[4] = Stability in liver microsomes; format: in vitro ADME; conditions: 2 μM peptidomimetic, human liver microsomes, 37° C.; for half-life at 2 μM: pH 7.8, read-out: half-life (t1/2) when incubated with liver microsomes
Procedure: as §1

| SMILES | half-life (t1/2) when incubated with simulated intestinal fluid [1] | % degradation of peptidomimetics in 24 h when incubated with simulated intestinal fluid [1] | half-life (t1/2) when incubated with simulated gastric fluid [2] | % degradation of peptidomimetics in 24 h when incubated with simulated gastric fluid [2] | Human Glucagon receptor antagonistic activity shown as inhibition of cAMP production of Glucagon peptide (human glucagon receptor; 1 nM test compound) | Human Glucagon receptor antagonistic activity shown as inhibition of cAMP production of Glucagon peptide (human glucagon receptor; 10 nM test compound) | Human Glucagon receptor antagonistic activity shown as inhibition of cAMP production of Glucagon peptide (human glucagon receptor; 100 nM test compound) | Human Glucagon receptor antagonistic activity shown as inhibition of cAMP production of Glucagon peptide (human glucagon receptor; 1 μM test compound) | Human Glucagon receptor antagonistic activity shown as inhibition of cAMP production of Glucagon peptide (human glucagon receptor; 10 μM test compound) | % degradation of peptidomimetics in 24 h when incubated with DPP-IV enzyme (DPP IV) | half-life at 2 μM (DPP IV) | % degradation of peptidomimetics in 24 h when incubated with human plasma [3] | half-life at 2 μM [3] | % degradation of peptidomimetics in 24 h when incubated with liver microsomes [4] | half-life at 2 μM [4] | half-life at 2 μM [1] | half-life at 2 μM [2] | half-life (t1/2) when incubated with human plasma [3] | half-life (t1/2) when incubated with liver microsomes [4] |
| --- | --- | --- | --- | --- | --- | --- | --- | --- | --- | --- | --- | --- | --- | --- | --- | --- | --- | --- | --- |
| CCc1cc(OC)ccc1-c1ccc(CC(NC(=O)[C@H](CC(=O)O)NC(=O)[C@H](CO)NC(=O)[C@@H](NC(=O)[C@H](Cc2ccccc2)NC(=O)[C@@H](NC(=O)CNC(=O)[C@H](CCC(N)=O)NC(=O)C(C)(C)NC(=O)[C@@H](N)Cc2c[nH]cn2)[C@@H](C)O)[C@@H](C)O)C(=O)NC(CCCc2ccc(C(F)(F)F)cc2F)C(N)=O)cc1 (some centres unmarked) [compound 65] (H-H[Aib]QGTFTSD[ξBip(2'-Et-4'-OMe)][X1]-NH2) | (6) h | 43% | (8) h | 14% | 10 ± 0.12 pmol/ml/μg prt | 8 ± 0.02 pmol/ml/μg prt | 6 ± 0.04 pmol/ml/μg prt | 4 ± 0.05 pmol/ml/μg prt | 1 ± 0.02 pmol/ml/μg prt | 76% | 9 h | 78% | 8 h | 80% | 1 h |  |  |  |  |
| CCc1cc(OC)ccc1-c1ccc(CC(NC(=O)[C@H](CC(=O)O)NC(=O)[C@H](CO)NC(=O)[C@@H](NC(=O)C(C)(Cc2ccccc2F)NC(=O)[C@@H](NC(=O)CNC(=O)C(CCC#N)NC(=O)C(C)(C)NC(=O)[C@H](Cc2c[nH]cn2)NC(=O)OC)[C@@H](C)O)[C@@H](C)O)C(=O)NC(CCCc2ccccc2F)C(N)=O)cc1 (single isomer, unassigned) [compound 208] |  | 100% |  | 100% | 5 ± 0.04 pmol/ml/μg prt | 3 ± 0.15 pmol/ml/μg prt | 1 ± 0.15 pmol/ml/μg prt | 0 pmol/ml/μg prt | 0 pmol/ml/μg prt | 76% |  | 78% |  | 100% | 0.5 h | 0.5 h | 0.5 h | (9) h |  |
| CCc1cc(OC)ccc1-c1ccc(CC(CNC(CCCc2ccccc2)C(N)=O)NC[C@H](CC(=O)O)NC(=O)[C@H](CO)NC(=O)[C@@H](NC(=O)C(C)(Cc2ccccc2F)NC(=O)[C@@H](NC(=O)CNC(=O)[C@H](CCC(N)=O)NC(=O)C(C)(C)NC(=O)[C@@H](N)Cc2c[nH]cn2)[C@H](C)O)[C@H](C)O)cc1 (single isomer, unassigned) [compound 201] |  | 00% |  | 43% |  |  |  |  |  | 00% | > 24 h | 00% | > 24 h | 84% | 2 h | > 24 h | 4 h |  |  |
| CCc1cc(OC)ccc1-c1ccc(CC(CNC(CCCc2ccccc2)C(N)=O)NC(=O)[C@H](CC(=O)O)NC(=O)[C@H](CO)NC(=O)[C@@H](NC(=O)C(C)(Cc2ccccc2F)NC(=O)[C@@H](NC(=O)CNC(=O)[C@H](CC(C(F)(F)F)C(F)(F)F)NC(=O)C(C)(C)NC(=O)[C@@H](N)Cc2c[nH]cn2)[C@H](C)O)[C@H](C)O)cc1 (some centres unmarked) [compound 215] |  | 00% |  | 00% |  |  |  |  |  | 00% | > 24 h | 00% | > 24 h | 32% |  | > 24 h | > 24 h |  | (5) h |
| CCc1cc(OC)ccc1-c1ccc(CC(NC(=O)[C@H](CC(=O)O)NC(=O)[C@H](CO)NC(=O)[C@@H](NC(=O)C(C)(Cc2ccccc2F)NC(=O)[C@@H](NC(=O)CNC(=O)[C@H](CC(C(F)(F)F)C(F)(F)F)NC(=O)C(C)(C)NC(=O)[C@@H](N)Cc2c[nH]cn2)[C@H](C)O)[C@H](C)O)C(=O)NC(CCCc2ccccc2F)C(N)=O)cc1 (some centres unmarked) [compound 229] |  | 100% |  | 100% |  |  |  |  |  | 70% |  | 71% |  | 100% | 0.5 h | 0.5 h | 0.5 h | (9) h |  |
| CCc1cc(OC)ccc1-c1ccc(CC(NC(=O)[C@H](CC(=O)O)NC(=O)[C@H](CO)NC(=O)[C@@H](NC(=O)[C@H](Cc2ccccc2)NC(=O)[C@@H](NC(=O)CNC(=O)[C@H](CCC(N)=O)NC(=O)C2(NC(=O)[C@@H](N)Cc3c[nH]cn3)CC2)[C@@H](C)O)[C@@H](C)O)C(=O)NC(CCCc2ccc(F)cc2F)C(N)=O)cc1 (single isomer, unassigned) [compound 70] | (6) h | 40% | (8) h | 14% |  |  |  |  |  | 70% | 9 h | 71% | 8 h | 78% | 1 h |  |  |  |  |
